According to patent publication US4138482A, “3-Cyano-N-(N,N-dimethylaminopropyl)-iminodibenzyl and salts thereof” (Hoffmann-La Roche Inc., priority 1976, dated 1979):
Where a name gives a salt, the structure may show the parent alone.

Key:
Solubility = format: physicochemical; conditions: free base
[1] = Anticholinergic side-effects; conditions: for example mouth dryness, constipation, tachycardia and/or accommodation disorders
[2] = tested on: neuronal serotonin uptake; test: Antidepressive activity / inhibition of the neuronal serotonin uptake in animal experiments; format: in vivo
From the text: The compound of formula I and its pharmaceutically acceptable acid addition salts, are therefore useful, for example, for the treatment of depressions of endogenous or exogenous origin. More specifically, they are useful as antidepressants.

[3] = tested on: serotonin re-uptake ("membrane pump"); test: Inhibition of the serotonin re-uptake in vivo (action of the "membrane pump"); set-up: species or system rat; conditions: for ED50: Rattus norvegicus, "membrane pump", Biochem. Pharmacol. 20, 707, 1971
[4] = tested on: serotonin uptake in blood platelets of the rat; test: Inhibition of the serotonin uptake in vitro (blood platelets); format: cell-based
Method: 4. Inhibition of the serotonin uptake in vitro
0.5 Ml. of blood plasma was treated with different concentrations of test substance in 50 μl of physiological sodium chloride solution. After incubating at 37° C. for 5 minutes, serotonin (C^14; 0.1 μM) was added and the mixture was incubated at 37° C. for an additional 5 minutes. The serotonin concentration was determined by means of a C^14 measuring apparatus. A control experiment in which no test substance is used was also carried out.

[5] = tested on: serotonin uptake in blood platelets of the rat; test: Inhibition of the serotonin uptake in vivo (blood platelets); conditions: ip; for inhibition at 5 mg/kg: Rattus norvegicus, Platelet, 5.0 mg/kg intraperitoneally twice daily over 4 days, 12 hours after last administration, read-out: Inhibition in % of the control; for Serotonin in mmol/mg. of protein: 5 mg/kg
Method: 5. Inhibition of the serotonin uptake in vivo
Rats were given twice daily over a period of 4 days an intraperitoneal injection of 5.0 mg. of test substance per kg. and 12 hours after the last administration the rats were killed. Serotonin was determined spectrofluorimetrically as described in J. Pharmacol. exp.

[6] = tested on: serotonin uptake in the synaptosomes of the forebrain of rats; test: Inhibition of the serotonin uptake ex vivo; format: in vivo, rat; conditions: for ED50: Rattus norvegicus, ip, injected intraperitoneally, serotonin uptake measured after 1 hour, rats
Method: (§1) The uptake of serotonin in the synaptosomes of the forebrain of rats was tested according to J. Pharmacol. exp.
2. Inhibition of the serotonin uptake ex vivo
An analogous experimental procedure to that given under 1 was utilized. The test substances were, however, injected intraperitoneally; the serotonin uptake was measured after 1 hour. Untreated rats were used as the controls.

[7] = tested on: serotonin uptake in the synaptosomes of the forebrain of rats; test: Inhibition of the serotonin uptake in vitro (synaptosomes of the forebrain of rats); format: biochemical, rat; conditions: for IC50: synaptosomes of the forebrain of rats, read-out: ED50 (inhibition of 50%) of serotonin uptake in vitro
Method: 1. Inhibition of the serotonin uptake in vitro
as §1

Row | solubility in organic solvents (Solubility; dimethylsulfoxide, dimethylformamide, chlorinated hydrocarbons (chloroform, methylene chloride), alkanols (methanol, ethanol), ether and benzene) | Structure (SMILES) | solubility in water (Solubility; water) | anticholinergic side-effects [1] | antidepressive activity [2] | inhibition of the neuronal serotonin uptake [2] | ED50 [3] | as active as substance B in times smaller doses ([3]; versus known substance B, in vivo re-uptake) | as active as substance C in times smaller doses ([3]; versus known substance C, in vivo re-uptake) | times greater activity than substance B ([4]; versus known substance B) | times greater activity than substance C ([4]; versus known substance C) | inhibition at 5 mg/kg [5] | Serotonin in mmol/mg. of protein [5] | ED50 [6] | as active as substance B in times smaller doses ([6]; versus known substance B, ex vivo) | as active as substance C in times smaller doses ([6]; versus known substance C, ex vivo) | IC50 [7] | times greater activity than substance B ([7]; versus known substance B, synaptosomes) | times greater activity than substance C ([7]; versus known substance C, synaptosomes)
1 | relatively good solubility | CN(C)CCCN1c2ccccc2CCc2ccc(C#N)cc21 [3-cyano-N-(N,N-dimethylaminopropyl)-iminodibenzyl] | soluble in water with relative difficulty | confined to a minimum | strong antidepressive activity | extraordinarily strong inhibition of the neuronal serotonin uptake |  |  |  |  |  |  |  |  |  |  |  |  | 
2 |  | CN(C)CCCN1c2ccccc2CCc2ccc(C#N)cc21 [Substance A, 3-Cyano-N-(N,N-dimethylaminopropyl)-iminodibenzyl hydrochloride] |  |  |  |  | 0.7 mg/kg | 18 times | 9 times | 130 times | 20 times | 61% | 4.09 ± 1.30 mmol/mg. of protein | 0.9 mg/kg | 21 times | 2.4 times | 1.5 nM | 52 times | 4.2 times
3 |  | CN(C)CCCN1c2ccccc2CCc2ccccc21 [Substance B, N-(N,N-Dimethylaminopropyl)-iminodibenzyl hydrochloride, reference compound] |  |  |  |  | 12.8 mg/kg |  |  |  |  | 14% | 9.72 ± 2.12 mmol/mg. of protein | 19 mg/kg |  |  | 78 nM |  | 
